Entries after “also recorded” stand apart in the source; their conditions may differ. Peptide text beside a SMILES is read from it. * marks the point of attachment. Cbz = O=C(OCc1ccccc1)*; CH2F = FC*
Columns and labels:
293T cells = assay: VPR-induced apoptosis and cell cycle analysis by propidium iodide DNA content in 293T cells; assay type: cell-based, human
Experimental: (§1) Cell cycle analysis in 293T cells was performed on ethanol-fixed cells using the propidium iodide staining method after transduction with lentiviral vectors encoding wild type or mutant VPR. Cell debris was excluded from the analysis, and the DNA content of cells below the diploid level, sub-G1, was used to calculate the apoptosis rate. The association of VPR with VprBP and DNA-PK was determined by immunoprecipitation. Briefly, whole cell extracts were prepared in lysis buffer and incubated with the relevant antibodies, concentrated on Protein G beads, and analyzed by Western blotting. HIV-1 viral stocks were generated by transfecting 293T cells with the HIV-189.6 wild type and IVPR plasmids followed by propagation in CEMx174 cells as previously described^16. CD4^+ T cells were isolated from elutriated lymphocytes using magnetic bead purification, activated and infected as described in Methods. For siRNA transfections in CD4^+ lymphocytes, isolated CD4 cells were transduced by nucleofection. In some experiments, cells were treated with either DMSO or the DNA-PK inhibitor NU7026 (Sigma) during the infection period. Viability of infected primary CD4^+ T cells was performed using combined staining with Annexin V-APC (BD Pharmigen) and the amine reactive viability dye ViVid (Invitrogen). Flow cytometry was performed with a LSR II cell analyzer.
CEMX174 cells were cultured in RPMI with 10% FBS and antibiotics (penicillin and streptomycin). HEK293T cells were cultured in DMEM supplemented with 10% FBS and antibiotics (penicillin and streptomycin). For immunoprecipitation experiments HEK293T cells were transfected with 3 μg of either […] or 102-HAVpr Q65R using the LipofectAMINE 2000 reagent (Life Technologies, Inc.). For cell cycle analysis HEK293T cells were harvested, washed with ice-cold PBS and resuspended in 70% cold ethanol while vortexing. The cells were incubated at −20° C. overnight, washed once with PBS and resuspended in PBS containing 25 μg/ml propidium iodide and 100 μg/ml RNaseA for 15 minutes at 25° C. Stained cells were then analyzed by flow cytometry.
Lentivirus vectors were produced by transiently transfecting HEK293T cells using the calcium phosphate method. […]. Virus supernatants were collected at 48 h post transfection. The harvested supernatants were cleared by centrifugation, concentrated and frozen at −80° C. for storage.

[1] = tested on: primary human CD4+ T cells infected with HIV-189.6; assay: Viability (Annexin V / ViVid) of primary CD4+ T cells infected with HIV-189.6; assay type: cell-based; conditions: primary CD4+ lymphocytes, wild type HIV-189.6; NU7026 vs DMSO vehicle; 6 days after infection
Experimental: as §1, with “For siRNA transfections in CD4^+ lymphocytes, isolated CD4 cells were transduced by nucleofection. In some experiments, cells were treated with either DMSO or the DNA-PK inhibitor NU7026 (Sigma) during the infection period. Viability of infected primary CD4^+ T cells was performed using combined staining with Annexin V-APC (BD Pharmigen) and the amine reactive viability dye ViVid (Invitrogen). Flow cytometry was performed with a LSR II cell analyzer.” left out
CD4^+ T lymphocytes were isolated from elutriated lymphocytes prepared from blood of healthy donors by negative selection with a CD4^+ T-cell isolation kit II (Miltenyi Biotech) according to the manufacturer's instructions. The purity of the isolated CD4^+ T cells was assessed by fluorescence-activated cell sorting (FACS) analysis for CD4 (BD-Pharmingen) and 95% of the cells were CD4^+ upon isolation. […]

DNA-PK = molecular target: T1, DNA-PK (Homo sapiens, UniProt P78527); assay: Western blot of γH2AX (H2AX phosphorylation) in cells transfected with VPR-encoding plasmid; assay type: cell-based; conditions: indicated concentrations of inhibitor (FIG. 2d)
T1 construct: endogenous in cells; host or cells: HEK293T (inferred; only VPR is transfected, DNA-PK is the cells' own)
Experimental: FIG. 2d, VPR induction of DNA-PKcs autophosphorylation (left, lanes 1,2) and Western blot analysis of γH2AX from cells transfected with a VPR-encoding plasmid and treated with the indicated concentrations of DNA-PK inhibitor NU7026 (right, lanes 3-7). Western blot analysis of autophosphorylated DNA-PKcs was performed using anti-phosphoserine 2056 DNA-PKcs from cells transfected with an empty vector or a VPR-encoding plasmid. Cell lysates were subjected to Western blotting using the indicated antibodies.
Cell extracts for Western blots and immunoprecipitations were made in cell lysis buffer (Cell Signal). Immunoprecipitations were performed overnight at 4° C. using normal rabbit serum, anti-VprBP or anti-DNA-PK polyclonal antibodies (Bethyl Laboratories). Protein G beads (Invitrogen) were then added for 2 h, washed three times with 1× lysis buffer, boiled and loaded onto 4-15% polyacrylamide Tris Glycine gels (BioRad). The primary antibodies used for Western blotting were anti-DNA-PK, anti-VprBP (Bethyl Laboratories), anti-actin (Sigma), anti-γH2AX (Cell Signaling), anti-HA (Santa Cruz Biotechnology), anti-Ku70, and anti-Ku80 (BD Transduction Laboratories).

HIV-189.6 = assay: Frequency of infection by p24 positivity, flow cytometry; assay type: cell-based, HIV-1; conditions: primary CD4+ lymphocytes, wild type HIV-189.6; NU7026 vs DMSO
Experimental: Purified, activated CD4^+ T cells were infected 2-3 days after isolation. For nucleofected cells, infection was done 36 h after nucleofection. HIV-1 infection of CD4^+ T lymphocytes was performed in 96-well round-bottomed culture plates by combining 10 μl virus stock with 150 μl CD4^+ T lymphocytes (1.5×10^5 cells). The multiplicity of infection was ˜1.0. CD4^+ T lymphocytes were harvested at the indicated times following exposure to virus.
CD4^+ T lymphocytes were harvested for Annexin V, Vivid and intracellular p24-Gag staining at the indicated times following exposure to virus. In brief, the cells were washed and stained with Annexin V-APC (BD Pharmigen) and Vivid (Invitrogen) for 20 min. Cells were washed once, fixed, and permeabilized with Cytoperm/Cytofix (BD Pharmingen) for 20 min. Cells were then stained for p24 Gag (KC-57 fluorescein isothiocyanate (FITC); Coulter) for 30 min and washed once in 1× Perm/wash buffer (BD Pharmingen). Flow cytometry was performed with an LSR II cell analyzer (Becton Dickinson), and data analysis was performed with FlowJo software (Tree Star, Inc.)

[2] = 293T cells transduced with VPR lentiviral vector, NU7026 10 μM vs DMSO, 72 h after transduction
[3] = 293T cells transduced with lentiviral vector encoding wild type VPR, 100 μM Z-VAD-fmk vs DMSO

Row | Structure (SMILES) | G2/M cell cycle arrest (293T cells; [2]) | VPR-induced apoptosis (293T cells; [2]) | direct cell killing by the virus (cell death following HIV infection) [1] | VPR induced H2AX phosphorylation (DNA-PK) | frequency of infection, p24 positivity (HIV-189.6) | G2/M blockade (293T cells; [3]) | VPR-induced apoptosis (293T cells; [3])
1 | O=c1cc(N2CCOCC2)oc2c1ccc1ccccc12 [NU7026] | without diminishing | alleviated | profoundly diminished; also recorded: substantial reduction | diminished by this DNA-PK inhibitor in a dose-dependent manner | remained unchanged |  | 
2 | COC(=O)C[C@H](NC(=O)[C@H](C)NC(=O)[C@@H](NC(=O)OCc1ccccc1)C(C)C)C(=O)CF [zVAD-fmk] (Cbz-Val-Ala-Asp(OMe)-CH2F) |  |  |  |  |  | did not reverse | significantly reduced
